Experimental data published in patent US20260223838A1, “ANTIMICROBIAL MASTERBATCHES AND POWDERS COMPRISING A SYNERGISTIC BLEND OF COMPONENTS” (priority 2023, published 2026).

Each compound was assayed on E. coli (ATCC 8739) (assay: Zone of Inhibition (ZOI) of pressed powder pellets). Settings: against E. coli after 24 h incubation at 37° C.
Method: Zone of Inhibition (ZOI). […] The cultures were streaked on Luria Agar (LB) plates and incubated overnight at 37° C. […] 50 μL of this stock suspension was spread homogeneously on a trypticase soy agar (TSA) plate (diameter 10 cm).
With [O]=[Mo](=[O])=[O] [molybdenum oxide, molybdenum (VI) oxide] the “diameter of the ZOI” value was 19 mm.
For basic copper (II) carbonate [BCC], the “diameter of the ZOI” value was 12 mm.
With Zinc borate the “diameter of the ZOI” value was “No ZOI”.
